Results published in ChEMBL document CHEMBL5500367, “Improving tumor sensitivity by the introduction of an ester chain to triaryl derivatives targeting PD-1/PD-L1” (Eur J Med Chem, 2024).
Calls of active or inactive are those of the source. No cut-off for these calls is given here.

How the values were obtained:
[1] = biological target: Programmed cell death protein 1/Programmed cell death 1 ligand 1 (Homo sapiens, UniProt Q9NZQ7); assay: Inhibition of PD-1/PD-L1 (unknown origin) interaction incubated for 15 mins by HTRF assay; format: protein-complex assay
Chain of Programmed cell death protein 1/Programmed cell death 1 ligand 1 (Q15116 whole entry): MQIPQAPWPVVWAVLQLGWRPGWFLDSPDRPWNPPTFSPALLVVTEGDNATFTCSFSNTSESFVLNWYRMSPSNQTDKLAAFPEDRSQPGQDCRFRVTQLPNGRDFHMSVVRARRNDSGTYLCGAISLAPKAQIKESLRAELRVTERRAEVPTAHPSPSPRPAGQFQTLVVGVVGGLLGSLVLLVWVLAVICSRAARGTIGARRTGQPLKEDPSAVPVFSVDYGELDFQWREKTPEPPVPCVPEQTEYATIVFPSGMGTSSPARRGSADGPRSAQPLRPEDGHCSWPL
Chain of Programmed cell death protein 1/Programmed cell death 1 ligand 1 (Q9NZQ7 whole entry): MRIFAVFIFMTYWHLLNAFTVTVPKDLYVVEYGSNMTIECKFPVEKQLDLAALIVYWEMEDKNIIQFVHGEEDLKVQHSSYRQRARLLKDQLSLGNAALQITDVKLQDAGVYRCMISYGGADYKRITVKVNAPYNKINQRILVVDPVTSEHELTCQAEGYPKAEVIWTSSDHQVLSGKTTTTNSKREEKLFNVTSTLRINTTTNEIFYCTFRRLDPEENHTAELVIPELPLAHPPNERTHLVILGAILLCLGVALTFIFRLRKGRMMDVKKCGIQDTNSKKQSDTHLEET

MDA-MB-231 = assay: Cytotoxicity against human MDA-MB-231 cells assessed as inhibition of cell viability incubated for 72 hrs by MTT assay; format: functional, cell-based; conditions: MDA-MB-231, 72 h
[2] = biological target: Programmed cell death 1 ligand 1 (Homo sapiens, UniProt Q9NZQ7)
Chain of Programmed cell death 1 ligand 1 (Q9NZQ7 whole entry): as above
Description: Binding affinity to CM5 chip immobilized recombinant human PD-L1 assessed as association constant by SPR analysis

HCT-116 = assay: Cytotoxicity against human HCT-116 cells assessed as inhibition of cell viability incubated for 72 hrs by MTT assay; format: functional, cell-based; conditions: HCT-116, 72 h
[3] = Toxicity in BALB/c mouse allografted with mouse 4T1 cells assessed as drug tolerance at 10 to 20 mg/kg, ip treated for 21 days consecutively; format: organism-based; conditions: in vivo, 504 h, dose 10-20 mg/kg, time 21 day
NCI-H1299 = assay: Cytotoxicity against human NCI-H1299 cells assessed as inhibition of cell viability incubated for 72 hrs by MTT assay; format: functional, cell-based; conditions: NCI-H1299, 72 h
4T1 [4] = assay: Antitumor activity against mouse 4T1 cells allografted in BALB/c mouse at 10 mg/kg, ip treated for 21 days consecutively relative to control; format: functional; conditions: 4T1, 504 h, time 21 day, read-out: TGI
A549 [5] = assay: Cytotoxicity against human A549 cells assessed as inhibition of cell viability incubated for 72 hrs by MTT assay; format: functional, cell-based; conditions: A549, 72 h
4T1 [6] = assay: Antitumor activity against mouse 4T1 cells allografted in BALB/c mouse at 20 mg/kg, ip treated for 21 days consecutively relative to control; format: functional; conditions: 4T1, 504 h, time 21 day, read-out: TGI
[7] = Toxicity in BALB/c mouse allografted with mouse 4T1 cells assessed as body weight loss at 10 to 20 mg/kg, ip treated for 21 days consecutively; format: organism-based; conditions: in vivo, 504 h, dose 10-20 mg/kg, time 21 day
4T1 [8] = assay: Antitumor activity against mouse 4T1 cells allografted in BALB/c mouse assessed as increase in CD8+ cell infiltration administered intraperitoneally treated for 21 days consecutively by IHC analysis; format: functional, cell-based; conditions: dose 10-20 mg/kg, route ip, time 21.0 day
[9] = Toxicity in BALB/c mouse allografted with mouse 4T1 cells assessed as animal death at 10 to 20 mg/kg, ip treated for 21 days consecutively; format: organism-based; conditions: in vivo, 504 h, dose 10-20 mg/kg, time 21 day
A549 [10] = assay: Cytotoxicity against human A549 cells assessed as decrease in cell viability at 2.5 to 10 uM incubated for 48 hrs by MTT assay; format: functional, cell-based; conditions: dose 2.5-10 µM
[11] = Cytotoxicity against human PBMC cells assessed as decrease in cell viability at 2.5 to 10 uM incubated for 48 hrs by MTT assay; format: toxicity, cell-based; conditions: dose 2.5-10 µM
[12] = Metabolic stability in human liver microsomes assessed as half life by LC-MS/MS analysis; format: ADME, Microsome
A549 [13] = assay: Cytotoxicity against human A549 cells assessed as inhibition of cell viability at 10 uM preincubated with A549 cells for 2 hrs followed by co-culture with CD3/CD28/CD2-activated PBMC cells for 48 hrs by MTT assay relative to control; format: functional; conditions: time 50 hrs
[14] = Metabolic stability in human liver microsomes assessed as intrinsic clearance by LC-MS/MS analysis; format: ADME, Microsome

COc1cc(OC(=O)c2cccc(-c3ccccc3)c2C)ccc1CNCCN(C)C
IC50 [1]: 358 nM

COc1cc(OC(=O)c2cccc(-c3ccccc3)c2C)ccc1CNCCCO
IC50 [1]: > 1000 nM

COc1cc(OC(=O)c2cccc(-c3ccccc3)c2C)ccc1CN1C[C@H](O)C[C@H]1C(=O)O
IC50 [1]: 113 nM

Cc1cc(OC(=O)c2cccc(-c3ccccc3)c2C)cc(OCc2cccc(C#N)c2)c1CN[C@H](CO)C(=O)O
IC50 [1]: 39.5 nM

Cc1c(C(=O)Oc2ccc(CNC(CO)(CO)CO)c(OCc3cccc(C#N)c3)c2C)cccc1-c1ccccc1
IC50 [1]: 109 nM

COc1cc(OC(=O)c2cccc(-c3ccccc3)c2C)ccc1CNCCO
IC50 [1]: 263 nM

Cc1cc(OC(=O)c2cccc(-c3ccccc3)c2C)cc(OCc2cccc(C#N)c2)c1CNC(CO)(CO)CO
IC50 [1]: 133 nM

Cc1c(C(=O)Oc2ccc(CN3C[C@H](O)C[C@H]3C(=O)O)c(OCc3cccc(C#N)c3)c2)cccc1-c1ccccc1
IC50 (MDA-MB-231): > 20 µM
Ka [2]: 7.9 10^5/M/s
IC50 (HCT-116): > 20 µM
Activity [3]: Non-Toxic
IC50 (NCI-H1299): > 20 µM
inhibition in vivo at 10 mg/kg (4T1 [4]): 49.4%
IC50 (A549 [5]): > 20 µM
inhibition in vivo at 20 mg/kg (4T1 [6]): 67.8%
Activity [7]: Non-Toxic
Activity (4T1 [8]): Dose-Dependent Effect
Activity [9]: Non-Toxic
Activity (A549 [10]): inactive
Activity [11]: Non-Toxic
IC50 [1]: 1.21 nM
t1/2 [12]: 18.8 min
inhibition at 10 µM (A549 [13]): 76.5%
CLH [14]: 100 µL/min/mg

Cc1c(C(=O)Oc2ccc(CNC(CO)(CO)CO)cc2)cccc1-c1ccccc1
IC50 [1]: 25.6 nM

COc1cc(OC(=O)c2cccc(-c3ccccc3)c2C)cc(OC)c1CNCC(O)CO (configuration not stated)
IC50 [1]: 228 nM

COc1cc(OC(=O)c2cccc(-c3ccccc3)c2C)ccc1CN1CCC(O)CC1
IC50 [1]: 78.6 nM

Cc1c(C(=O)Oc2ccc(CN[C@@H](CO)C(=O)O)cc2)cccc1-c1ccccc1
IC50 (MDA-MB-231): > 20 µM
IC50 (HCT-116): > 20 µM
IC50 (NCI-H1299): > 20 µM
IC50 (A549 [5]): > 20 µM
Activity (A549 [10]): inactive
Activity [11]: Non-Toxic
IC50 [1]: 17.5 nM

Cc1cc(OC(=O)c2cccc(-c3ccccc3)c2C)ccc1CN[C@@H](CO)C(=O)O
IC50 (MDA-MB-231): > 20 µM
Ka [2]: 5.31 10^5/M/s
IC50 (HCT-116): > 20 µM
IC50 (NCI-H1299): > 20 µM
IC50 (A549 [5]): > 20 µM
Activity (A549 [10]): inactive
Activity [11]: Non-Toxic
IC50 [1]: 2.25 nM

Cc1cc(OC(=O)c2cccc(-c3ccccc3)c2C)cc(OCc2cccc(C#N)c2)c1CNCCO
IC50 [1]: 271 nM

Cc1c(C(=O)Oc2ccc(CN[C@@H](CO)C(=O)O)c(OCc3cccc(C#N)c3)c2C)cccc1-c1ccccc1
IC50 [1]: 231 nM

Cc1c(C(=O)Oc2ccc(CNC(CO)(CO)CO)c(Br)c2)cccc1-c1ccccc1
IC50 (MDA-MB-231): > 20 µM
Ka [2]: 1.16 10^5/M/s
IC50 (HCT-116): > 20 µM
IC50 (NCI-H1299): 18.7 µM
IC50 (A549 [5]): > 20 µM
Activity (A549 [10]): inactive
Activity [11]: Non-Toxic
IC50 [1]: 2.62 nM

COc1cc(OCc2cccc(-c3ccccc3)c2C)cc(OC)c1CN1CCCC[C@H]1C(=O)O
Ka [2]: 1.17 10^5/M/s
inhibition in vivo at 20 mg/kg (4T1 [6]): 33.1%
Activity (A549 [10]): inactive
Activity [11]: Non-Toxic
t1/2 [12]: 14.2 min
CLH [14]: 216 µL/min/mg

Cc1c(C(=O)Oc2ccc(CN[C@@H](CO)C(=O)O)c(OCc3cccc(C#N)c3)c2)cccc1-c1ccccc1
IC50 [1]: > 1000 nM

Cc1cc(OC(=O)c2cccc(-c3ccccc3)c2C)ccc1CNC(CO)(CO)CO
IC50 (MDA-MB-231): 18.3 µM
Ka [2]: 4.37 10^5/M/s
IC50 (HCT-116): 12.2 µM
IC50 (NCI-H1299): 16.5 µM
IC50 (A549 [5]): 18.6 µM
IC50 [1]: 1.98 nM

Cc1cc(OC(=O)c2cccc(-c3ccccc3)c2C)cc(OCc2cccc(C#N)c2)c1CN[C@@H](CO)C(=O)O
IC50 [1]: 64.3 nM

Cc1c(C(=O)Oc2ccc(CN[C@H](CO)C(=O)O)cc2)cccc1-c1ccccc1
IC50 [1]: 55.1 nM

COc1cc(OC(=O)c2cccc(-c3ccccc3)c2C)ccc1CNCCNC(C)=O
IC50 [1]: 893 nM

COc1cc(OC(=O)c2cccc(-c3ccccc3)c2C)ccc1CNC[C@H](O)CO
IC50 [1]: 381 nM

COc1cc(OC(=O)c2cccc(-c3ccccc3)c2C)ccc1CN[C@@H](CO)C(=O)O
IC50 (MDA-MB-231): > 20 µM
IC50 (HCT-116): > 20 µM
IC50 (NCI-H1299): > 20 µM
IC50 (A549 [5]): > 20 µM
Activity (A549 [10]): inactive
Activity [11]: Non-Toxic
IC50 [1]: 27.3 nM

COc1cc(OC(=O)c2cccc(-c3ccccc3)c2C)ccc1CN1CCCC[C@H]1C(=O)O
IC50 [1]: > 1000 nM

Cc1cc(OC(=O)c2cccc(-c3ccccc3)c2C)cc(OCc2cccc(C#N)c2)c1CNC[C@H](O)CO
IC50 [1]: 254 nM

Cc1c(COc2cc(OCc3cccc(C#N)c3)c(CN3C[C@H](O)C[C@@H]3C(=O)O)cc2Cl)cccc1-c1ccc2c(c1)OCCO2
Activity (A549 [10]): inactive
Activity [11]: Non-Toxic

Cc1c(C(=O)Oc2ccc(CNCCO)c(OCc3cccc(C#N)c3)c2)cccc1-c1ccccc1
IC50 (MDA-MB-231): 7.68 µM
IC50 (HCT-116): 7.35 µM
IC50 (NCI-H1299): 7.4 µM
IC50 (A549 [5]): 12.7 µM
Activity (A549 [10]): inactive
Activity [11]: Non-Toxic
IC50 [1]: 13.2 nM

Cc1c(C(=O)Oc2ccc(CN[C@H](CO)C(=O)O)c(OCc3cccc(C#N)c3)c2)cccc1-c1ccccc1
IC50 [1]: 24 nM

Cc1c(C(=O)Oc2cc(OCc3cccc(C#N)c3)c(CNC(CO)CO)cc2Cl)cccc1-c1ccccc1
IC50 [1]: 118 nM

COc1cc(OC(=O)c2cccc(-c3ccccc3)c2C)ccc1CNC(CO)CO
IC50 (MDA-MB-231): > 20 µM
IC50 (HCT-116): 12.2 µM
IC50 (NCI-H1299): 11.4 µM
IC50 (A549 [5]): 18.8 µM
IC50 [1]: 27.1 nM

COc1cc(OC(=O)c2cccc(-c3ccccc3)c2C)ccc1CNC[C@@H](O)CO
IC50 [1]: 302 nM

COc1cc(OC(=O)c2cccc(-c3ccccc3)c2C)ccc1CNC(CO)(CO)CO
IC50 [1]: 72.4 nM

CC(=O)NCCNCc1ccc(OC(=O)c2cccc(-c3ccccc3)c2C)cc1OCc1cccc(C#N)c1
IC50 [1]: 506 nM
